Test system: Winter barley
Assay: Post-emergence test/greenhouse: damage to crop plants
Assay type: in vivo
Conditions: greenhouse, about three weeks after application
Description: The active compound (flucarbazone-sodium and propoxycarbazone-sodium were each used as WG 70) or safener components are in each case dissolved in a few ml (generally 2-3 ml) of solvent (generally acetone or N,N-dimethyl-formamide), and the solutions are combined and then—if appropriate after addition of an emulsifier—diluted with water to the desired concentration. In general, an aqueous spray liquor was prepared using 0.5% of the additive Renex-36. The test plants are grown under controlled conditions (temperature, light, atmospheric humidity) in a greenhouse. The test plants are sprayed when they have reached a height of 5-15 cm. The concentration of the spray liquor is chosen such that the particular amounts of active compound desired are applied in 500 l of water/ha. After spraying, the pots with the test plants are kept in a greenhouse chamber under controlled conditions (temperature, light, atmospheric humidity) until the test has ended. About three weeks after the application, the degree of damage to the crop plants is rated in % damage in comparison to the development of the untreated control. The figures denote: • 0%=no damage (like untreated control) • 100%=total destruction/damage

COc1nn(C(=O)NS(=O)(=O)c2ccccc2OC(F)(F)F)c(=O)n1C [flucarbazone-sodium, 2-(2-trifluoromethoxyphenylsulphonylaminocarbonyl)-4-methyl-5-methoxy-2,4-dihydro-3H-1,2,4-triazol-3-one] was tested, and the “Damage Winter barley (in %)” value (application rate 8 g of a.i./ha) was 40%.
For CCCOc1nn(C(=O)NS(=O)(=O)c2ccccc2C(=O)OC)c(=O)n1C [propoxycarbazone-sodium, 2-(2-methoxycarbonylphenylsulphonylaminocarbonyl)-4-methyl-5-n-propoxy-2,4-dihydro-3H-1,2,4-triazol-3-one], the “Damage Winter barley (in %)” value (application rate 2 g of a.i./ha) was 35% and the “Damage Winter barley (in %)” value (application rate 4 g of a.i./ha, 0%=no damage, 100%=total destruction) was 60%.

Source: US7615514B2, “Selective herbicides based on substituted arylsulphonylaminocarbonyl-triazolinones and safeners” (Bayer CropScience AG, priority 2001, dated 2009)
